Reference: ChEMBL document CHEMBL2021908, “Identification of novel isocytosine derivatives as xanthine oxidase inhibitors from a set of virtual screening hits” (Bioorg Med Chem, 2012)

Experiments:
[1] = test system: Rattus norvegicus; experiment: Antihyperuricemic activity in Sprague-Dawley rat assessed as decrease of potassium oxonate-induced uric acid level in serum at 50 mg/kg, ip administered 1 hr post potassium oxonate challenge measured after 4 hrs by photometric analysis relative to control; format: functional; parameters: scale not given: the % may be the effect or the level left; details: route intraperitoneal
[2] = molecular target: T1, Xanthine dehydrogenase/oxidase (Bos taurus, UniProt P80457); experiment: Inhibition of bovine xanthine oxidase assessed as uric acid formation using xanthine as substrate after 30 mins by spectrophotometric analysis
T1 sequence (P80457 whole entry): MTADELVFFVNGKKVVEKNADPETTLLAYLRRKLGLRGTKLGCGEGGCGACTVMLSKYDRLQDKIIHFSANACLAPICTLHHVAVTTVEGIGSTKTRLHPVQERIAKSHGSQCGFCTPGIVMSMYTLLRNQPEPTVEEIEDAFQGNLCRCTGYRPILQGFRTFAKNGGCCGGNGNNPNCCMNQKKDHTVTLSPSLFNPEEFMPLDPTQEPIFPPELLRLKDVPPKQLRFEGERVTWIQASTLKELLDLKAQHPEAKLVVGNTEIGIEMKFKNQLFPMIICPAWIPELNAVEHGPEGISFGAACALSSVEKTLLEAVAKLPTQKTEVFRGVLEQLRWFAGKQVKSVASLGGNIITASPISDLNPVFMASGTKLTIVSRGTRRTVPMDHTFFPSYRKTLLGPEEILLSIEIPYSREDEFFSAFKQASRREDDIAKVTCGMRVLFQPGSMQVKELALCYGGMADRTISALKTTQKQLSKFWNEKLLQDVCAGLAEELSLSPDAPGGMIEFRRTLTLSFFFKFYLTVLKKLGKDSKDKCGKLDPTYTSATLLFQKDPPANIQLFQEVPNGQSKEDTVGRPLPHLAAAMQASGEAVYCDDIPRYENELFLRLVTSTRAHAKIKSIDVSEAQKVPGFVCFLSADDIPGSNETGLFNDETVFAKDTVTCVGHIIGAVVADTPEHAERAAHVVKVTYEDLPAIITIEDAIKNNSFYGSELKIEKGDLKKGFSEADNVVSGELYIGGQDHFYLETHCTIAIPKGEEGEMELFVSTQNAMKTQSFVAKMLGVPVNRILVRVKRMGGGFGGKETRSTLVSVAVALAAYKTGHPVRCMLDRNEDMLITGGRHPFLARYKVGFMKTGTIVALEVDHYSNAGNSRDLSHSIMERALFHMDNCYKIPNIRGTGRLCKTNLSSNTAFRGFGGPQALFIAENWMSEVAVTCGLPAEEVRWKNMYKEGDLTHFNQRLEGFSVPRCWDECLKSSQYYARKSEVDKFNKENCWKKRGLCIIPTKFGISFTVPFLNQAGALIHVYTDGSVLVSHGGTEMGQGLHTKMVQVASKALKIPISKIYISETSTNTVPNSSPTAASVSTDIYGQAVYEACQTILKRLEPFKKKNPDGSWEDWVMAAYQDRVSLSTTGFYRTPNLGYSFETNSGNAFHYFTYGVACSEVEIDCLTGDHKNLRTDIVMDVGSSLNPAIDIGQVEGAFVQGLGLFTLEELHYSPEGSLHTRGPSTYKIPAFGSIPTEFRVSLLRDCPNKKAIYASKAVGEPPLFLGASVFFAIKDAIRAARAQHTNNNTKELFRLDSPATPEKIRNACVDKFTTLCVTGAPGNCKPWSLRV

[3] = molecular target: T1, Xanthine dehydrogenase/oxidase; experiment: Inhibition of bovine xanthine oxidase assessed as uric acid formation using xanthine as substrate at 100 uM after 30 mins by spectrophotometric analysis; details: cattle, 0.5 h
[4] = molecular target: T1, Xanthine dehydrogenase/oxidase; experiment: Inhibition of bovine xanthine oxidase assessed as uric acid formation using xanthine as substrate at 10 uM after 30 mins by spectrophotometric analysis; details: cattle, 0.5 h
[5] = test system: Rattus norvegicus; experiment: Antihyperuricemic activity in Sprague-Dawley rat assessed as decrease of potassium oxonate-induced uric acid level in serum at 10 mg/kg, po administered 1 hr post potassium oxonate challenge measured after 4 hrs by photometric analysis relative to control; parameters: scale not given: the % may be the effect or the level left
[6] = test system: Rattus norvegicus; experiment: Antihyperuricemic activity in Sprague-Dawley rat assessed as decrease of potassium oxonate-induced uric acid level in serum at 100 mg/kg, po administered 1 hr post potassium oxonate challenge measured after 4 hrs by photometric analysis relative to control; format: functional; parameters: scale not given: the % may be the effect or the level left

**Q.** Which Activity [1] does the source give for `COc1ccc(-c2cc(O)nc(N)n2)cc1OC` here?
**A.** 57%

**Q.** For `COc1ccc(-c2cc(O)nc(O)n2)cc1`, which IC50 [2] is on record?
**A.** > 100 µM

**Q.** And the inhibition at 100 µM [3]?
**A.** 0%

**Q.** `Oc1ncnc2[nH]ncc12` [ALLOPURINOL] was tested. Which inhibition at 10 µM [4] did it give?
**A.** 100%

**Q.** And the Activity [5]?
**A.** 184%

**Q.** How did the inhibition at 100 µM [3] turn out when `COc1cc2c(cc1OC)-c1n[nH]c(=O)n1CC2` was run?
**A.** 0%

**Q.** Which IC50 [2] does the source give for `COc1ccc(-c2cc(NS(C)(=O)=O)nc(N)n2)cc1` here?
**A.** > 100 µM

**Q.** How did the Activity [6] turn out when `COc1ccc(-c2cc(O)nc(N)n2)cc1` was run?
**A.** 84%

**Q.** For `COC(=O)c1cc(C)c2c(c1)S(=O)(=O)Cc1cc(NN)cc(Cl)c1O2`, which inhibition at 100 µM [3] is on record?
**A.** 0%

**Q.** For `O=C(O)c1ccc(-n2ccnc2)c([N+](=O)[O-])c1`, which inhibition at 100 µM [3] is on record?
**A.** 0%

**Q.** For `O=C1C(=CNNc2ccccc2)C(=O)N(c2ccc(Cl)cc2)C(=S)N1c1ccc(Cl)cc1`, which inhibition at 100 µM [3] is on record?
**A.** 0%

**Q.** How did the IC50 [2] turn out when `COc1ccc(-c2cc(C(F)(F)F)nc(N)n2)cc1` was run?
**A.** > 100 µM

**Q.** How did the Activity [5] turn out when `Cc1nc(-c2ccc(OCC(C)C)c(C#N)c2)sc1C(=O)O` [FEBUXOSTAT] was run?
**A.** 209%
